Experimental data: PMC3271384 (Molecular Genetics and Metabolism, 2012)
Residue numbers refer to the chain shown, from its start.

What was measured:
Type in all cases: binding
AGT-Mi [1] = target: T1, AGT-Mi (Homo sapiens, UniProt P21549, I340M/P11L/W108R); assay: CD signal at […] nm titration of apoenzyme
T1 sequence (P21549 1-392 P11L/W108R/I340M): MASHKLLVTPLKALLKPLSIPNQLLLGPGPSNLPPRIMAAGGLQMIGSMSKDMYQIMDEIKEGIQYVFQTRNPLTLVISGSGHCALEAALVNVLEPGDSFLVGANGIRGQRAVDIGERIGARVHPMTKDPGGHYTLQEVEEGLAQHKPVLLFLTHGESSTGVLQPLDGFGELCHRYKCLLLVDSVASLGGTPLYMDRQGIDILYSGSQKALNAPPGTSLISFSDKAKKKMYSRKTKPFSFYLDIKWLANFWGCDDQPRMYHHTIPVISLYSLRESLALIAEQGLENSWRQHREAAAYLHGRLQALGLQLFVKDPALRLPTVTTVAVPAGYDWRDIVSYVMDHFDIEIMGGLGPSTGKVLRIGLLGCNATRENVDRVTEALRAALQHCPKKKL

AGT-Ma [2] = target: T2, AGT-Ma (Homo sapiens, UniProt P21549, S158L); assay: CD signal at […] nm titration of apoenzyme
T2 sequence (P21549 1-392 S158L): T1 sequence (P21549 1-392 P11L/W108R/I340M) with L11P, R108W, S158L, M340I

AGT-Mi [3] = target: T3, AGT-Mi (Homo sapiens, UniProt P21549, G350D/I340M/P11L); assay: quenching of intrinsic fluorescence of apoenzyme
T3 sequence (P21549 1-392 P11L/I340M/G350D): T1 sequence (P21549 1-392 P11L/W108R/I340M) with R108W, G350D

AGT-Mi [4] = target: T4, AGT-Mi (Homo sapiens, UniProt P21549, G161S/I340M/P11L); assay: quenching of intrinsic fluorescence of apoenzyme
T4 sequence (P21549 1-392 P11L/G161S/I340M): T1 sequence (P21549 1-392 P11L/W108R/I340M) with R108W, G161S

AGT-Ma [5] = target: T5, AGT-Ma (Homo sapiens, UniProt P21549, P319L); assay: quenching of intrinsic fluorescence of apoenzyme
T5 sequence (P21549 1-392 P319L): T1 sequence (P21549 1-392 P11L/W108R/I340M) with L11P, R108W, P319L, M340I

AGT-Ma [6] = target: T6, AGT-Ma (Homo sapiens, UniProt P21549, D183N); assay: CD signal at […] nm titration of apoenzyme
T6 sequence (P21549 1-392 D183N): T1 sequence (P21549 1-392 P11L/W108R/I340M) with L11P, R108W, D183N, M340I

AGT-Ma [7] = target: T7, AGT-Ma (Homo sapiens, UniProt P21549, S218L); assay: CD signal at […] nm titration of apoenzyme
T7 sequence (P21549 1-392 S218L): T1 sequence (P21549 1-392 P11L/W108R/I340M) with L11P, R108W, S218L, M340I

Kd (AGT-Mi [1]): 96 ± 19 µM
Kd (AGT-Ma [2]): 272 ± 47 µM
Kd (AGT-Mi [3]): 0.031 ± 0.005 µM
Kd (AGT-Mi [4]): 0.46 ± 0.07 µM
Kd (AGT-Ma [5]): 0.19 ± 0.04 µM
Kd (AGT-Ma [6]): 2.1 ± 0.1 µM
Kd (AGT-Ma [7]): 24.2 ± 0.1 µM
Structure (SMILES): Cc1ncc(COP(=O)(O)O)c(C=O)c1O [PLP]
